Results published in article PMC4660370 (Nature Communications, 2015).
Where two headings read alike, the source gives them in different places.

Experiments:
AgIMPDH [1] = molecular target: T1, AgIMPDH (Eremothecium gossypii, UniProt Q756Z6); experiment: IMPDH activity assay and enzyme kinetics (NADH absorbance at 340 nm), AgIMPDH; format: biochemical, A. gossypii; conditions: for effect on AgIMPDH catalytic activity in vitro: adenine nucleotides; for α (substrate–inhibitor heterotropic cooperative interaction) / β (fractional activity of the ternary enzyme–substrate-inhibitor complex): mixed inhibition model
Method: (§1) IMPDH activity was assayed by monitoring the reduction of NAD^+ to NADH and the subsequent increase in absorbance at 340 nm in buffer: 100 mM Tris-HCl, 100 mM KCl, 2 mM DTT pH 8.0. […] When Mg^+2 was included in the reaction, the total concentration of MgCl2 was 5 mM. The experimental data were fitted to the Michaelis–Menten equation of enzyme kinetics using the OriginPro software (OriginLab Corporation), to obtain the maximum apparent initial velocity (Vmax^app) and the apparent Michaelis–Menten constant (KM^app):
(§2) Following this equation, the global nonlinear regression analysis of Vmax^app and KM^app, as a function of the inhibitor concentration, allowed the intrinsic Michaelis–Menten constant (KM) and inhibition constant (Ki) for competitive inhibition to be determined. The substrate–inhibitor heterotropic cooperative interaction and the fractional activity of the ternary enzyme–substrate–inhibitor complex, α and β respectively, were estimated using a mixed inhibition model:
(§3) The constant α reflects the effect of the inhibitor on the apparent affinity of the enzyme for the substrate.

BsIMPDH = molecular target: T2, BsIMPDH (Bacillus subtilis, UniProt P21879); experiment: biochemical; format: biochemical, Bacillus subtillis; conditions: for effect on catalytic activity: ATP with or without 5 mM MgCl2
T2 construct: His8 (TEV site) (N, cleaved yes); made in house; host or cells: E. coli BL21 (DE3)
T2 sequence (P21879 whole entry): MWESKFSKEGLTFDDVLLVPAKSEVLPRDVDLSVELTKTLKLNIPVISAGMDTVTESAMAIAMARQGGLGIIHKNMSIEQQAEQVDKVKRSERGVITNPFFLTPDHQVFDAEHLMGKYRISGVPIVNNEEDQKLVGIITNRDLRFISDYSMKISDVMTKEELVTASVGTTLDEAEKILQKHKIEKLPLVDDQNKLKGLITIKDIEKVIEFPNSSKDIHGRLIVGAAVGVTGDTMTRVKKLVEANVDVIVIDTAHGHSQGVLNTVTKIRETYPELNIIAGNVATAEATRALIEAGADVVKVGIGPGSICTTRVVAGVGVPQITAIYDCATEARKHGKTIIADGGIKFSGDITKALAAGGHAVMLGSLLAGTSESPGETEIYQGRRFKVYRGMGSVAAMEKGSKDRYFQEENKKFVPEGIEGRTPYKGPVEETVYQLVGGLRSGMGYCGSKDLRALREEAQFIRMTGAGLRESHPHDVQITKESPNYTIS
Method: as §1, §2, §3

HsIMPDH2 = molecular target: T3, HsIMPDH2 (Homo sapiens, UniProt P12268); experiment: IMPDH activity assay and enzyme kinetics, HsIMPDH2; format: biochemical; conditions: for effect on catalytic activity: ATP with or without 5 mM MgCl2; for α (substrate–inhibitor heterotropic cooperative interaction) / β (fractional activity of the ternary enzyme–substrate-inhibitor complex): mixed inhibition model
T3 construct: His8 (modified pET15b vector, TEV site) (N); made in house
Method: as §1, §2, §3

HsIMPDH1 = molecular target: T4, HsIMPDH1 (Homo sapiens, UniProt P20839); experiment: IMPDH activity assay and enzyme kinetics, HsIMPDH1; format: biochemical; conditions: for effect on catalytic activity: ATP with or without 5 mM MgCl2; for α (substrate–inhibitor heterotropic cooperative interaction) / β (fractional activity of the ternary enzyme–substrate-inhibitor complex): mixed inhibition model
T4 construct: His8 (modified pET15b vector, TEV site) (N); made in house
T4 sequence (P20839 whole entry): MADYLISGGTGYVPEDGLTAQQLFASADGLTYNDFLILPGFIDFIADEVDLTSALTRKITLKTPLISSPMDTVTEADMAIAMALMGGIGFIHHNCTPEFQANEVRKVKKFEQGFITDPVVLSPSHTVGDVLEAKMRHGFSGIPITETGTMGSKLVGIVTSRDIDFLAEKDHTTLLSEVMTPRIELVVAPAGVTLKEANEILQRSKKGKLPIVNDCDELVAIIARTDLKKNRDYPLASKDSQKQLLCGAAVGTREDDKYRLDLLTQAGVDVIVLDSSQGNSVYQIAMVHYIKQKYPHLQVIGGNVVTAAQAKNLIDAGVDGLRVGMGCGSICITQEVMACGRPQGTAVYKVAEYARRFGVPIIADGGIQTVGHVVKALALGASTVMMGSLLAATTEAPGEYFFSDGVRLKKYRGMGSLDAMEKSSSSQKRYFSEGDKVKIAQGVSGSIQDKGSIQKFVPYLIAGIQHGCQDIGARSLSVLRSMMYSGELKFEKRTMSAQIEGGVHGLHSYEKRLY
Method: as §1, §2, §3

EcIMPDH = molecular target: T5, EcIMPDH (Escherichia coli, UniProt P0ADG7); experiment: biochemical; format: biochemical; conditions: for effect on catalytic activity: ATP with or without 5 mM MgCl2
T5 construct: His8 (TEV site) (N, cleaved yes); made in house; host or cells: E. coli BL21 (DE3)
T5 sequence (P0ADG7 whole entry): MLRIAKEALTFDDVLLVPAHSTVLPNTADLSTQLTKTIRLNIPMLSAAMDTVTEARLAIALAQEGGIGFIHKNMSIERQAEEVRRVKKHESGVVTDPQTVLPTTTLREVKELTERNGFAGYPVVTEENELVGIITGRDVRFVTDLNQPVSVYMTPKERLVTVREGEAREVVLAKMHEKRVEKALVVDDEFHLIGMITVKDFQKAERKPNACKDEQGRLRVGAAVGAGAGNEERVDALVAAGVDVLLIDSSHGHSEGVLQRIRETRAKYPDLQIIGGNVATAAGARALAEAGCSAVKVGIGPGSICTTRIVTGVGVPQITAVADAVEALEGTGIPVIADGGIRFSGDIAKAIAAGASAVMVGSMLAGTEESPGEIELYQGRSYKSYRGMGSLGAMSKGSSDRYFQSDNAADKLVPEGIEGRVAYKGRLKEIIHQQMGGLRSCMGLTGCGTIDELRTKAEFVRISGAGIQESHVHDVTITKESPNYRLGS
Method: as §1, §2, §3

AgIMPDH ΔBateman = experiment: IMPDH activity assay, mutant lacking the Bateman domain; format: biochemical, A. gossypii; conditions: 2 mM nucleotide
Method: as §1, with “(KM^app): […]” for “(KM^app):”

AgIMPDH-ΔBateman = AgIMPDH-ΔBateman (Eremothecium gossypii, UniProt Q756Z6, DEL116-235/INS115SQDG); experiment: Isothermal titration calorimetry, AgIMPDH-ΔBateman; format: binding, A. gossypii
Method: (§4) Standard ITC experiments were performed using an AutoITC200 system (Malvern Instruments). […] The resulting heats were integrated and fitted to a single binding site model implemented in the software package Origin (OriginLab Corporation).

AgIMPDH [2] = molecular target: T1, AgIMPDH; experiment: biochemical
Method: as §4

AgIMPDH [3] = molecular target: T1, AgIMPDH; conditions: GMP titration, WT
Method: as §4

## Nc1ncnc2c1ncn2[C@@H]1O[C@H](COP(=O)(O)OP(=O)(O)O)[C@@H](O)[C@H]1O [ADP]
AgIMPDH [1]
  effect on AgIMPDH catalytic activity in vitro: did not exert any significant effect

## Nc1ncnc2c1ncn2[C@@H]1O[C@H](COP(=O)(O)O)[C@@H](O)[C@H]1O [AMP]
AgIMPDH [1]
  effect on AgIMPDH catalytic activity in vitro: did not exert any significant effect

## Nc1ncnc2c1ncn2[C@@H]1O[C@H](COP(=O)(O)OP(=O)(O)OP(=O)(O)O)[C@@H](O)[C@H]1O [ATP]
AgIMPDH [1]
  effect on AgIMPDH catalytic activity in vitro: did not exert any significant effect
BsIMPDH
  effect on catalytic activity: neither ATP nor Mg-ATP showed a significant effect
HsIMPDH2
  effect on catalytic activity: neither ATP nor Mg-ATP showed a significant effect
HsIMPDH1
  effect on catalytic activity: neither ATP nor Mg-ATP showed a significant effect
EcIMPDH
  effect on catalytic activity: neither ATP nor Mg-ATP showed a significant effect

## Nc1nc2c(ncn2[C@@H]2O[C@H](COP(=O)(O)OP(=O)(O)O)[C@@H](O)[C@H]2O)c(=O)[nH]1 [GDP, guanosine-5′-diphosphate]
AgIMPDH [1]
  Inhibition (type): Mixed type
  α (substrate–inhibitor heterotropic cooperative interaction): 6.5±0.8
  β (fractional activity of the ternary enzyme–substrate-inhibitor complex): 0.033±0.005
AgIMPDH [1]; read-out: Ki
  Ki: 210 ± 40 µM
BsIMPDH
  Inhibition (type): Mixed type—weak
  Ki: 2300 ± 400 µM
BsIMPDH; mixed inhibition model
  α (substrate–inhibitor heterotropic cooperative interaction): 2.9±0.4
  β (fractional activity of the ternary enzyme–substrate-inhibitor complex): 0.8±0.1
HsIMPDH2
  Inhibition (type): Mixed type
  Ki: 610 ± 60 µM
  α (substrate–inhibitor heterotropic cooperative interaction): 6.6±0.8
  β (fractional activity of the ternary enzyme–substrate-inhibitor complex): 0.14±0.05
AgIMPDH ΔBateman
  effect on enzymatic activity of ΔBateman mutant (KM app/KM): not significantly affected
HsIMPDH1
  Inhibition (type): Mixed type
  Ki: 230 ± 40 µM
  α (substrate–inhibitor heterotropic cooperative interaction): 4.7±0.7
  β (fractional activity of the ternary enzyme–substrate-inhibitor complex): 0.12±0.04
EcIMPDH
  Inhibition (type): No

## Nc1nc2c(ncn2[C@@H]2O[C@H](COP(=O)(O)O)[C@@H](O)[C@H]2O)c(=O)[nH]1 [GMP, guanosine-5′-monophosphate]
AgIMPDH [1]
  Inhibition (type): Competitive
  Ki: 600 ± 100 µM
AgIMPDH-ΔBateman
  Kd: 22 µM
AgIMPDH-ΔBateman; GMP titration, ΔBateman
  n (binding stoichiometry): 1.0
  ΔH: -7.7 kcal/mol
BsIMPDH
  Inhibition (type): Competitive
  Ki: 420 ± 70 µM
HsIMPDH2
  Inhibition (type): Competitive
AgIMPDH [2]
  Kd: 24 µM
AgIMPDH ΔBateman
  effect on enzymatic activity of ΔBateman mutant (KM app/KM): inhibited the wild-type and ΔBateman enzymes in a similar manner
HsIMPDH1
  Inhibition (type): Competitive
EcIMPDH
  Inhibition (type): Competitive
  Ki: 1100 ± 100 µM
AgIMPDH [3]
  n (binding stoichiometry): 0.9
  ΔH: -9.1 kcal/mol

## Nc1nc2c(ncn2[C@@H]2O[C@H](COP(=O)(O)OP(=O)(O)OP(=O)(O)O)[C@@H](O)[C@H]2O)c(=O)[nH]1 [GTP, guanosine-5′-triphosphate]
AgIMPDH [1]
  Inhibition (type): Mixed type
  α (substrate–inhibitor heterotropic cooperative interaction): 4.1±0.7
  β (fractional activity of the ternary enzyme–substrate-inhibitor complex): 0.24±0.05
AgIMPDH [1]; read-out: Ki
  Ki: 160 ± 40 µM
BsIMPDH
  Inhibition (type): No
HsIMPDH2
  Inhibition (type): Mixed type
  Ki: 480 ± 60 µM
  α (substrate–inhibitor heterotropic cooperative interaction): 3.0±0.4
  β (fractional activity of the ternary enzyme–substrate-inhibitor complex): 0.51±0.08
AgIMPDH ΔBateman
  effect on enzymatic activity of ΔBateman mutant (KM app/KM): not significantly affected
HsIMPDH1
  Inhibition (type): Mixed type
  Ki: 540 ± 60 µM
  α (substrate–inhibitor heterotropic cooperative interaction): 3.8±0.5
  β (fractional activity of the ternary enzyme–substrate-inhibitor complex): 0.11±0.04
EcIMPDH
  Inhibition (type): Competitive

## Nc1ncnc2c1ncn2[C@@H]1O[C@H](COP(=O)(O)OP(=O)([O-])OP(=O)([O-])O)[C@@H](O)[C@H]1O.[Mg+2] [Mg-ATP]
AgIMPDH [1]; total MgCl2 5 mM
  effect on catalytic activity of AgIMPDH (Vmax app/Vmax, KM app/KM): not affected
BsIMPDH
  effect on catalytic activity: neither ATP nor Mg-ATP showed a significant effect
HsIMPDH2
  effect on catalytic activity: neither ATP nor Mg-ATP showed a significant effect
HsIMPDH1
  effect on catalytic activity: neither ATP nor Mg-ATP showed a significant effect
EcIMPDH
  effect on catalytic activity: neither ATP nor Mg-ATP showed a significant effect
